One test deals with T1, TET1 (Homo sapiens, UniProt Q8NFU7).
T1 construct: transfected with full-length TET1/3 constructs; expressed in transfected cells; host or cells: HEK293T
Nature of the test: Activity of full-length TET in HEK293T cells, 5hmC dot blot. The class given is cell-based. As to conditions: dot-blot with 5hmC antibody. On the procedure:
(§1) were quantified with Bradford assay (Bio-Rad laboratories) using BSA as a standard and used for
(§2) 14. Expression and activity of full-length TET1 and 3 in HEK293T cells
(§3) To determine the effect of 6A on TET1 and TET3 activity, HEK293T cells were plated in 6 well
(§4) plates and transfected with full-length TET1/3 constructs. Briefly, 2ug of TET1/3 or Empty Vector
(§5) control per well was added to 200µL of JetOptimus buffer and vortexed followed by addition of
(§6) 3µL JetOptimus reagent. The solution was vortexed and left to sit at room temperature for 10
(§7) minutes. The solution was then added to 1.8mL of DMEM and added to the cells in culture plate.
(§8) The cells were left for 4 hours at 37 °C incubator at 5% CO2. The media was aspirated and replaced
(§9) with 2mL of DMEM and 100µM of 6A was added or equivalent volume of DMSO and left in the
(§10) incubator for 24 hours. Cells were then collected and subject to genomic DNA isolation using
(§11) Fisher GeneJET gemoic DNA Purification Kit (Fisher K0721) following manufactures protocol.
(§12) 1000ng of gDNA, as measured via nanodrop, was then subject to Dot Blot experiment. Briefly,
(§13) 20µL of 1000ng gDNA was added to 40µL of 2M NaOH-50mM EDTA solution for 3 minutes at
(§14) room temperature. 140µL of 10mM Tris/1mM EDTA pH 8.0 (TE) buffer and heated at 95 °C for […]

A further test addresses T2, TET3 (Homo sapiens, UniProt O43151).
T2 construct: transfected with full-length TET1/3 constructs; expressed in transfected cells; host or cells: HEK293T
The description is as above. As to conditions: dot-blot with 5hmC antibody. The format is cell-based. On the procedure:
as §1, §2, §3, §4, §5, §6, §7, §8, §9, §10, §11, §12, §13, §14

T1 sequence (Q8NFU7 whole entry): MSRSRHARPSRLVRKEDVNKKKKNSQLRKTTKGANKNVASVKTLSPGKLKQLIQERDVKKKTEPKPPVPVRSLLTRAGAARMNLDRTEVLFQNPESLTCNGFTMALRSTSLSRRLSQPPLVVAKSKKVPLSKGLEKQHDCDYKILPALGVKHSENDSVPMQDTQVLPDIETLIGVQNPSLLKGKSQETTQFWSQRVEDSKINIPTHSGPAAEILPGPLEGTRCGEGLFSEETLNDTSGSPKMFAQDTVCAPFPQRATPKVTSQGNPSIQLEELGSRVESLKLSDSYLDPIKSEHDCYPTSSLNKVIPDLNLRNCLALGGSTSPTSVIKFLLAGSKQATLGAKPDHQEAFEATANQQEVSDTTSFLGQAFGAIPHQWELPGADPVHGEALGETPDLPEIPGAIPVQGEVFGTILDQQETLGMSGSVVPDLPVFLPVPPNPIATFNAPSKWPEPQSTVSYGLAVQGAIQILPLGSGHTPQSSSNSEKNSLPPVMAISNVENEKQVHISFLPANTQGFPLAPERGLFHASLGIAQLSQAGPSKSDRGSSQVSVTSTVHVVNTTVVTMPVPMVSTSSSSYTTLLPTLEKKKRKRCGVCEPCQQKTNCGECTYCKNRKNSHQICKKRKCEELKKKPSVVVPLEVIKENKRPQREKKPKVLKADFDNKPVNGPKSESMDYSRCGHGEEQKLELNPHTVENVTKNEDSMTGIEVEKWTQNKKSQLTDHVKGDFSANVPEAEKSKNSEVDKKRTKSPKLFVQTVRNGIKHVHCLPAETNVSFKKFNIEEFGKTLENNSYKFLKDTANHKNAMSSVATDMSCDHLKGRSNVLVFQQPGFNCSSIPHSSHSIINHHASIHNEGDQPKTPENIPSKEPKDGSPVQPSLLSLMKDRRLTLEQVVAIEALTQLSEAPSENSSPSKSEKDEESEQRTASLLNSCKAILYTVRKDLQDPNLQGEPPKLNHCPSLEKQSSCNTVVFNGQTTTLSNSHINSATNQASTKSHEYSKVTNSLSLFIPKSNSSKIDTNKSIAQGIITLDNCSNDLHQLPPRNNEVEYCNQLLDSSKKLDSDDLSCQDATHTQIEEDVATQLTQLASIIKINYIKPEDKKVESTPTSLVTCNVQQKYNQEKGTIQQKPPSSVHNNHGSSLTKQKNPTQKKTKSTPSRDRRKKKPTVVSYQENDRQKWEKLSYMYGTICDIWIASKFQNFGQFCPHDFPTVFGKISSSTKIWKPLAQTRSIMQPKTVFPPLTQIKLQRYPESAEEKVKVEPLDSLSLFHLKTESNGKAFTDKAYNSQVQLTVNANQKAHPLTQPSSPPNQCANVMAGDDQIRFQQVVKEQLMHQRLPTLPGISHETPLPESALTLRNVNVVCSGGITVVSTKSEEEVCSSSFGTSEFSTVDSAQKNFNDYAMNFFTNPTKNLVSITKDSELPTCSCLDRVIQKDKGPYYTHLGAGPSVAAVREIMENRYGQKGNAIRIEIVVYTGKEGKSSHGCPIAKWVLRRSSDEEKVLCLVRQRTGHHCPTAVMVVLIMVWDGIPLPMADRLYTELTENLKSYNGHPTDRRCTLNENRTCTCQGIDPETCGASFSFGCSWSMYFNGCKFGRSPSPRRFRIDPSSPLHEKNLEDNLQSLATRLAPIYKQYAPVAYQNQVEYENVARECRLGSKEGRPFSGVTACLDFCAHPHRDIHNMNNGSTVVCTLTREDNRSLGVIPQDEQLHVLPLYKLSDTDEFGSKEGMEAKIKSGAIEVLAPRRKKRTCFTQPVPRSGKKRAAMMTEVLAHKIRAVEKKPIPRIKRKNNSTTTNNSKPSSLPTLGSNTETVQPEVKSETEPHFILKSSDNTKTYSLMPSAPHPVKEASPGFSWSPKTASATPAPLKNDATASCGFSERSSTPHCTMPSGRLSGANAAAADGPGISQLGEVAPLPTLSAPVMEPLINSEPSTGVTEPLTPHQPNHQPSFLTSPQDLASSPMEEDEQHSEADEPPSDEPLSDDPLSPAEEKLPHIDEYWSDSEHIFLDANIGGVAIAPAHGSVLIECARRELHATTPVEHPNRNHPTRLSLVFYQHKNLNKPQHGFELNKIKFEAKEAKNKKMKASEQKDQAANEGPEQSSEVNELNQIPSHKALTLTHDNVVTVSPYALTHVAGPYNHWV
T2 sequence (O43151 whole entry): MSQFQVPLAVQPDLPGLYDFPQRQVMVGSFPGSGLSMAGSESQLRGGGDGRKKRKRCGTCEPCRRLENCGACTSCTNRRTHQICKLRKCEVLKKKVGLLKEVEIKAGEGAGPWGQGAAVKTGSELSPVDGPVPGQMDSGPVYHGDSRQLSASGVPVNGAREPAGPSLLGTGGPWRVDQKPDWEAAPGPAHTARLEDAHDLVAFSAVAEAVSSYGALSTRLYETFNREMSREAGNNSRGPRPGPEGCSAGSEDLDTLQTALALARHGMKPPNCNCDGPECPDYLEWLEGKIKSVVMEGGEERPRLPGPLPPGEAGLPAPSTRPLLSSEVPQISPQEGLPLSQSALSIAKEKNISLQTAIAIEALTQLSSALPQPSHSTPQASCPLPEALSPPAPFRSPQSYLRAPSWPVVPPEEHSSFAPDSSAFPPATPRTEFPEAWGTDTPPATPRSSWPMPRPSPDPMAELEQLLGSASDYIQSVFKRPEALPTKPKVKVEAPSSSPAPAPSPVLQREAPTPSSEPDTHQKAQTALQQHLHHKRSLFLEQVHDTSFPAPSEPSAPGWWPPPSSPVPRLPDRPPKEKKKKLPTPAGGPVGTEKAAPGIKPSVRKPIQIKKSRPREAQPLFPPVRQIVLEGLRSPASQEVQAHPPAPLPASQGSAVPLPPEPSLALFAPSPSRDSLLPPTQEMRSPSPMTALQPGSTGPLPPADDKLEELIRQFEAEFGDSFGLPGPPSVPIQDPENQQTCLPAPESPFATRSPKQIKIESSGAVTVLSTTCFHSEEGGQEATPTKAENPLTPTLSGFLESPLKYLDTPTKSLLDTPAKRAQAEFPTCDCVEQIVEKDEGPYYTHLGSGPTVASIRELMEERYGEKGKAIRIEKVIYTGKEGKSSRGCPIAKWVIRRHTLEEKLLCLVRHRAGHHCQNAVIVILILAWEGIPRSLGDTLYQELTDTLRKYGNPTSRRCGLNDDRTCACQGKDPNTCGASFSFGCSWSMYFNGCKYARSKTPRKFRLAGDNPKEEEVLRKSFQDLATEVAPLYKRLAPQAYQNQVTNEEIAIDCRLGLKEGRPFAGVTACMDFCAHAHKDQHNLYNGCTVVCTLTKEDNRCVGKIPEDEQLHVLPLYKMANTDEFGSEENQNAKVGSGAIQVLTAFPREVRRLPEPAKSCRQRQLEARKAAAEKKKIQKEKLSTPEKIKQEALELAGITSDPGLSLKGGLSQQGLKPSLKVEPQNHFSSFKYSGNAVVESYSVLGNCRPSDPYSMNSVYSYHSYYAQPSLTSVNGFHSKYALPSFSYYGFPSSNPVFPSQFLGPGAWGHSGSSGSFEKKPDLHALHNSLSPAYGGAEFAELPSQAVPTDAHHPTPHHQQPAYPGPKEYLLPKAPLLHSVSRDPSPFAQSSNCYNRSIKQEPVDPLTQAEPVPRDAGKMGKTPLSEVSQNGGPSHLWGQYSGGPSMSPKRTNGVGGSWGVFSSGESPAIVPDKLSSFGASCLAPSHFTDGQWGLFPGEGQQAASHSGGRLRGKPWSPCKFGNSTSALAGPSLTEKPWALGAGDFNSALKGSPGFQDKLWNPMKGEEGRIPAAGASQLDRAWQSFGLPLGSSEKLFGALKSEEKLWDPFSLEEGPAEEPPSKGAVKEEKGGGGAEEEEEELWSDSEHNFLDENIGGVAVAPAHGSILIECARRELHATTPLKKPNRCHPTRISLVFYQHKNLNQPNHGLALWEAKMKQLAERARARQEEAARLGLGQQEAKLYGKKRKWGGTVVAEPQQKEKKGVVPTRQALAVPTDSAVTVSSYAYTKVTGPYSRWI

For `CCCCCCCCOC(=O)C(=O)NC(CC(C)C)C(=O)O` [6A, L-Leu octyl-ester NOG], the “inhibition of TET1 5hmC formation” value against TET1 is “No inhibition”. In addition, the “inhibition of TET3 5hmC formation” value against TET3 is “No inhibition”.

(Values after publication PMC11783601, “Analogue-Sensitive Inhibition of Histone Demethylases Uncovers Member-Specific Function in Ribosomal Protein Synthesis” (Journal of the American Chemical Society, 2025).)
